From publication doi:10.1101/2021.09.30.462449v1 (biorxiv, 2021)

Tests used:
Experiment in all cases: biochemical
Conditions in all cases: read-out: % inhibition mean (Z'Lyte)
PRKD1 (PKC mu) = PRKD1 (PKC mu) (Homo sapiens, UniProt Q15139)
PRKX = PRKX (Homo sapiens, UniProt P51817)
MAP3K9 (MLK1) = MAP3K9 (MLK1) (Homo sapiens, UniProt P80192)
MAPKAPK3 = MAPKAPK3 (Homo sapiens, UniProt Q16644)
GRK7 = GRK7 (Homo sapiens, UniProt Q8WTQ7)
DCAMKL2 (DCK2) = DCAMKL2 (DCK2) (Homo sapiens, UniProt Q8N568)
BRAF = BRAF (Homo sapiens, UniProt P15056)
HIPK2 = HIPK2 (Homo sapiens, UniProt Q9H2X6)
FRK (PTK5) = FRK (PTK5) (Homo sapiens, UniProt P42685)
AKT1 (PKB alpha) = AKT1 (PKB alpha) (Homo sapiens, UniProt P31749)
PRKCB1 (PKC beta I) = PRKCB1 (PKC beta I) (Homo sapiens, UniProt P05771)
ADRBK1 (GRK2) = ADRBK1 (GRK2) (Homo sapiens, UniProt P25098)
ABL1 F317L = ABL1 F317L (Homo sapiens, UniProt P00519, F317L)
MAPK14 (p38 alpha) = MAPK14 (p38 alpha) (Homo sapiens, UniProt Q16539)
EGFR (ErbB1) G719C = EGFR (ErbB1) G719C (Homo sapiens, UniProt P00533, G719C)
AURKA (Aurora A) = AURKA (Aurora A) (Homo sapiens, UniProt O14965)
PTK2 (FAK) = PTK2 (FAK) (Homo sapiens, UniProt Q05397)
RET V804L = RET V804L (Homo sapiens, UniProt P07949, V804L)
MATK (HYL) = MATK (HYL) (Homo sapiens, UniProt P42679)
CSNK1G2 (CK1 gamma 2) = CSNK1G2 (CK1 gamma 2) (Homo sapiens, UniProt P78368)
MAP2K1 (MEK1) = MAP2K1 (MEK1) (Homo sapiens, UniProt Q02750)
MARK3 = MARK3 (Homo sapiens, UniProt P27448)
ACVR1B (ALK4) = ACVR1B (ALK4) (Homo sapiens, UniProt P36896)
TBK1 = TBK1 (Homo sapiens, UniProt Q9UHD2)
ROCK2 = ROCK2 (Homo sapiens, UniProt O75116)
AURKC (Aurora C) = AURKC (Aurora C) (Homo sapiens, UniProt Q9UQB9)
NEK2 = NEK2 (Homo sapiens, UniProt P51955)
SGK2 = SGK2 (Homo sapiens, UniProt Q9HBY8)
RET A883F = RET A883F (Homo sapiens, UniProt P07949, A883F)
Sequence of RET A883F (P07949 whole entry A883F): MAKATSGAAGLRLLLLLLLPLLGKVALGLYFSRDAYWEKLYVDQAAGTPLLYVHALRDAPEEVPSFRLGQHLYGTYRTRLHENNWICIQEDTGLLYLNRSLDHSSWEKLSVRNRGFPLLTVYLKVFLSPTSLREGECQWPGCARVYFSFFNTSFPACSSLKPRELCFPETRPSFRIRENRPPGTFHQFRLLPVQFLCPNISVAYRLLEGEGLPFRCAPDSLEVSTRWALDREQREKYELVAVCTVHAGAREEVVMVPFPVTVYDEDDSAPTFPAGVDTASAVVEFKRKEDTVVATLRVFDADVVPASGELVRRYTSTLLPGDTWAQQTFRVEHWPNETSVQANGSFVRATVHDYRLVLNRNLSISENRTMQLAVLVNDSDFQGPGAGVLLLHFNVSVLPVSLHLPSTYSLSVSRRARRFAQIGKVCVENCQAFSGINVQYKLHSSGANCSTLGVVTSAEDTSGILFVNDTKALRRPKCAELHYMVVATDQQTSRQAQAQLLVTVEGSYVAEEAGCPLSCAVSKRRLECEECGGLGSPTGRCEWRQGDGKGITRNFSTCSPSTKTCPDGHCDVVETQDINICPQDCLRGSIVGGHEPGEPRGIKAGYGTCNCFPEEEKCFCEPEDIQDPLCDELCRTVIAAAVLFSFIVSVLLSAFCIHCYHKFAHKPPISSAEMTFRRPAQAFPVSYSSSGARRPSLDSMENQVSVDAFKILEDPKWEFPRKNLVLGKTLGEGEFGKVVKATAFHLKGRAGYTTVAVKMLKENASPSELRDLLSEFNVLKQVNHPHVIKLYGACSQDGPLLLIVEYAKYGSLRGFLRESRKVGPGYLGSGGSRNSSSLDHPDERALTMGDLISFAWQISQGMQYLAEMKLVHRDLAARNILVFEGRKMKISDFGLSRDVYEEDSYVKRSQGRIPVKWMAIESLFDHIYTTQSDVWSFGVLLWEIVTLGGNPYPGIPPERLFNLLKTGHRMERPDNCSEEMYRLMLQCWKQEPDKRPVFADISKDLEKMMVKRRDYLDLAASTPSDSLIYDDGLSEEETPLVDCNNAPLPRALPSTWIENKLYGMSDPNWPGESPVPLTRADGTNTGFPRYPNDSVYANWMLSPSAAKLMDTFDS

Sequence of RET V804L (P07949 whole entry V804L): as the sequence (P07949 whole entry A883F) above, with V804L, F883A counted along it
Sequence of ACVR1B (ALK4) (P36896 whole entry): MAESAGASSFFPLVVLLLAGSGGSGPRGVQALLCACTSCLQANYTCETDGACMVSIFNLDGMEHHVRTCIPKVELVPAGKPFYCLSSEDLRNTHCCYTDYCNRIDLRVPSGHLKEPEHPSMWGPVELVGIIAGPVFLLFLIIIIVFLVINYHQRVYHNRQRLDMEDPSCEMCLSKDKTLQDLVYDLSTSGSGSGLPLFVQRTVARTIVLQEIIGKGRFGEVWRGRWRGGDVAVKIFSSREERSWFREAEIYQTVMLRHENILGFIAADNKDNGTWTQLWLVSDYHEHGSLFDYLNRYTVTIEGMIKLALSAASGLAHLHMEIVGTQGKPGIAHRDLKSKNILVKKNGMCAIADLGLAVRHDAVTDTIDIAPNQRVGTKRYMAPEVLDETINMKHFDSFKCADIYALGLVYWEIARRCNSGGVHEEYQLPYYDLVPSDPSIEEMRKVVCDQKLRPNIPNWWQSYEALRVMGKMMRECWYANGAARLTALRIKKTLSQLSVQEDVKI
Sequence of AURKC (Aurora C) (Q9UQB9 whole entry): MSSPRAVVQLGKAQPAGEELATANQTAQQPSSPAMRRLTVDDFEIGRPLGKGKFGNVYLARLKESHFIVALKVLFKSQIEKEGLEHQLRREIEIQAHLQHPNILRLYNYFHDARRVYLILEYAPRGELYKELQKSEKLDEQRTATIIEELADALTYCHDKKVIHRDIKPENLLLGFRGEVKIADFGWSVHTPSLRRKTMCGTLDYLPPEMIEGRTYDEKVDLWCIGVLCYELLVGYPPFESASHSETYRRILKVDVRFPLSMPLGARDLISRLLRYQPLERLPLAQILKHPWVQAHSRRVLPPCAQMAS
Sequence of ROCK2 (O75116 whole entry): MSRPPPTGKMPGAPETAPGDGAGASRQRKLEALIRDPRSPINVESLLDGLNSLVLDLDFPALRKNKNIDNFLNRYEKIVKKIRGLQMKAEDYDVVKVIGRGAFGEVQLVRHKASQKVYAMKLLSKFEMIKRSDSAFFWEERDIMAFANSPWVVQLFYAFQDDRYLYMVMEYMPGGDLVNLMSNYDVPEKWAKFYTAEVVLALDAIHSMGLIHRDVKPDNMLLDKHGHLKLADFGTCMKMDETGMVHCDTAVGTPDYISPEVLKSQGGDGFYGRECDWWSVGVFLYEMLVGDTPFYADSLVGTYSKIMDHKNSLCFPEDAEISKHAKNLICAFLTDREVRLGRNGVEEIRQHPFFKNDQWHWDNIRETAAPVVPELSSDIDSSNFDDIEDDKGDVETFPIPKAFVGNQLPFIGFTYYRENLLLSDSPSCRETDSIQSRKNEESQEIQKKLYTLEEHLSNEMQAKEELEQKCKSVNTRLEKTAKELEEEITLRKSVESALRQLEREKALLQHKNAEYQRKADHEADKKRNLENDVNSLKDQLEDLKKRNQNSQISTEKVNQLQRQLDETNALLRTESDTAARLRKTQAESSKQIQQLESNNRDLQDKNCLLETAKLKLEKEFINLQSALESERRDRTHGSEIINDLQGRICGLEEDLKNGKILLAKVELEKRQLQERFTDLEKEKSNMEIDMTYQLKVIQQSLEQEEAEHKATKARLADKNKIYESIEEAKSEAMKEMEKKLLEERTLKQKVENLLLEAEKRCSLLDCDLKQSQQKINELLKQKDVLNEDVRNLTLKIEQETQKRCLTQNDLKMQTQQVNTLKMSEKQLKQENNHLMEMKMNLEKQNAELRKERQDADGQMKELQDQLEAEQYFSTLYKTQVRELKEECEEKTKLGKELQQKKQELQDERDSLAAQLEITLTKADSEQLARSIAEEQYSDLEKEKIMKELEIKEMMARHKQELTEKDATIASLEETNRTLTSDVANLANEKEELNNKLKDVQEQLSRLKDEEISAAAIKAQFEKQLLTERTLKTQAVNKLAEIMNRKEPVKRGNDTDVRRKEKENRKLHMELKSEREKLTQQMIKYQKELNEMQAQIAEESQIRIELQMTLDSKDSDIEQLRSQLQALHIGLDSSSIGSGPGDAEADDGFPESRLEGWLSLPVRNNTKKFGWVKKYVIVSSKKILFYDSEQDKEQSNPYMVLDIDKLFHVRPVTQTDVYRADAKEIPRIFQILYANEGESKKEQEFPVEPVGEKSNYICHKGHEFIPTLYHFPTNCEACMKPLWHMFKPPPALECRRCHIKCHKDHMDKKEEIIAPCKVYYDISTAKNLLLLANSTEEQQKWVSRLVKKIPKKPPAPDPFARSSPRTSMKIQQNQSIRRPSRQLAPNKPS
Sequence of TBK1 (Q9UHD2 whole entry): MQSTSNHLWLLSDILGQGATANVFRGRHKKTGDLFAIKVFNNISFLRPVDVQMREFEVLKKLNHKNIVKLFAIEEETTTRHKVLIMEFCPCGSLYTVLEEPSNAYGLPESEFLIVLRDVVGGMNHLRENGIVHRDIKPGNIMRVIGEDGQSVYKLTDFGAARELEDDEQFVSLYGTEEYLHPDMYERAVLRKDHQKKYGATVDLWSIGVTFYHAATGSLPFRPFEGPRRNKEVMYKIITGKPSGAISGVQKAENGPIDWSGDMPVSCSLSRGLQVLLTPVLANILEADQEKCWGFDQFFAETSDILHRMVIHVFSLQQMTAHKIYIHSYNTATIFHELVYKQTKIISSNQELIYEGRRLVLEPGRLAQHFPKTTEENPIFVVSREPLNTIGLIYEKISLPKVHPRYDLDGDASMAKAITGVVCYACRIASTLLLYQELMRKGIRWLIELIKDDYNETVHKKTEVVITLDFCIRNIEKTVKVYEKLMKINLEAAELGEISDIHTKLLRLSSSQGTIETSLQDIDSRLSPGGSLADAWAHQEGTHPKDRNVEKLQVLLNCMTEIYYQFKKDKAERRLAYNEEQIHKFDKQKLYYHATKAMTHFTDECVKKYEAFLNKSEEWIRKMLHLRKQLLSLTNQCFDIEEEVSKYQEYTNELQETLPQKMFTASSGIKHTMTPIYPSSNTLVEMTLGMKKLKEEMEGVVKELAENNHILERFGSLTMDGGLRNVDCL
Sequence of MAP2K1 (MEK1) (Q02750 whole entry): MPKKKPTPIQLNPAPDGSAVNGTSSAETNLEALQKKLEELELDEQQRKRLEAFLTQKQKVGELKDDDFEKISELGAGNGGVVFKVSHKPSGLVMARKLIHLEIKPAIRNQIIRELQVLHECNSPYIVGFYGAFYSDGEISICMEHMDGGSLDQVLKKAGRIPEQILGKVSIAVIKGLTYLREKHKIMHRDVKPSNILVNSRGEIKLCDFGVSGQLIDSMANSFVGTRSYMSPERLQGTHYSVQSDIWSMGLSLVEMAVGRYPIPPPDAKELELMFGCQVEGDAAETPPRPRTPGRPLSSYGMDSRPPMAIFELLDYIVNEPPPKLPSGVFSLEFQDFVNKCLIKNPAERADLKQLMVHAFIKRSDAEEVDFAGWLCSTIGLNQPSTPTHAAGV
Sequence of AKT1 (PKB alpha) (P31749 whole entry): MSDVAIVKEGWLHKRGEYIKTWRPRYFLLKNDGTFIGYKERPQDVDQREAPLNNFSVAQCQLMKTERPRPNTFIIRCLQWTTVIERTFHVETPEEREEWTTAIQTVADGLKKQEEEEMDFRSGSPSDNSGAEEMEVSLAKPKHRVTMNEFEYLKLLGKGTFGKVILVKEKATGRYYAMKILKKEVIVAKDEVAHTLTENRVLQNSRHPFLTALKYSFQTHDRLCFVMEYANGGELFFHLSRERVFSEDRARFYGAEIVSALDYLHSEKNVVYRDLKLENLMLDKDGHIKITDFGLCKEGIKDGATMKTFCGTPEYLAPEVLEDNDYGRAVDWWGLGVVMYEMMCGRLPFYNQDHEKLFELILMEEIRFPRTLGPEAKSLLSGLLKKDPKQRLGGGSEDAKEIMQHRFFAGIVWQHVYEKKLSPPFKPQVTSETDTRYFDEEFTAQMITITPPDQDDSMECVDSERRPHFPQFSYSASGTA

## COc1ccc2nc3cc(Cl)ccc3c(Nc3cc(CN4CCCC4)c(O)c(CN4CCCC4)c3)c2n1 [Pyronaridine, 4-[(7-Chloro-2-methoxybenzo[b][1,5]naphthyridin-10-yl)amino]-2,6-bis(1-pyrrolidinylmethyl)phenol phosphate (1:4)]
PRKD1 (PKC mu)
  inhibition at 1 µM: -2%
PRKX
  inhibition at 1 µM: 5%
MAP3K9 (MLK1)
  inhibition at 1 µM: 17%
MAPKAPK3
  inhibition at 1 µM: 17%
GRK7
  inhibition at 1 µM: 4%
DCAMKL2 (DCK2)
  inhibition at 1 µM: -1%
BRAF
  inhibition at 1 µM: 4%
HIPK2
  inhibition at 1 µM: -1%
FRK (PTK5)
  inhibition at 1 µM: -2%
AKT1 (PKB alpha)
  inhibition at 1 µM: 4%
PRKCB1 (PKC beta I)
  inhibition at 1 µM: 2%
ADRBK1 (GRK2)
  inhibition at 1 µM: -3%
ABL1 F317L
  inhibition at 1 µM: -1%
MAPK14 (p38 alpha)
  inhibition at 1 µM: 1%
EGFR (ErbB1) G719C
  inhibition at 1 µM: -4%
AURKA (Aurora A)
  inhibition at 1 µM: 9%
PTK2 (FAK)
  inhibition at 1 µM: 2%
RET V804L
  inhibition at 1 µM: 1%
MATK (HYL)
  inhibition at 1 µM: -2%
CSNK1G2 (CK1 gamma 2)
  inhibition at 1 µM: 4%
MAP2K1 (MEK1)
  inhibition at 1 µM: -2%
MARK3
  inhibition at 1 µM: 2%
ACVR1B (ALK4)
  inhibition at 1 µM: -1%
TBK1
  inhibition at 1 µM: 4%
ROCK2
  inhibition at 1 µM: 1%
AURKC (Aurora C)
  inhibition at 1 µM: -11%
NEK2
  inhibition at 1 µM: -4%
SGK2
  inhibition at 1 µM: 3%
RET A883F
  inhibition at 1 µM: -1%
